Results: patent US12077555B2, “STAT degraders and uses thereof” (Kymera Therapeutics, Inc., priority 2019, dated 2024)
Where two headings read alike, the source gives them in different places.

Target: STAT3 (Homo sapiens, UniProt P40763)
Experiment: Quantitation of STAT3 degradation in A549 cells by Western blot
Type: cell-based
Design: expressed in transfected cells; host or cells: A549
Protocol: Degradation of total cellular STAT3 protein in A549 was quantitatively measured using SDS-PAGE and Western blot analysis. A549 cells (5×10^5 cells/well, 2 mL) were seeded into 6-well plates and were incubated in the incubator under 5% CO2 overnight to reach ˜80% confluency. The next day, the culture medium was changed with 1 ml fresh media. Then, 1 mL of media containing 2× compound solution was added into the well to make the final concentration of 30 μM, 10 μM, 3 μM, 1 μM, 0.3 μM and 0 μM (DMSO). The media was thoroughly mixed and incubated for 24 hours at 37° C. under 5% CO2. Then, the culture media was removed from the assay plates and the cells were washed with ice-cold PBS twice. To prepare cell lysates, 200 ul pre-chilled RIPA lysis buffer (Boston BioProducts BP-115D) with protease/phosphatase inhibitor (Roche 05892791001/Roche 04906837001) was added directly into the well to lyse the cells for 20 minutes on ice. The cell lysates were then transferred to centrifuge tubes. Insoluble part of lysates was removed by centrifuging the lysates at 13000 rpm for 20 minutes. The supernatant was then collected and mixed with 5× loading buffer (Beyotime Bio P0015) to make the final samples for SDS-PAGE analysis. The samples were heated at 100° C. for 10 minutes and cool to room temperature before centrifuging at 13000 rpm for 20 minutes. To analyze the samples by SDS-PAGE, 10 ul samples were loaded onto SDS-PAGE gel (Novex, WG1403BOX) and the SDS-PAGE gel was run for 20 minutes at 80 V, then at 120 V for 1.5 hours. The SDS-PAGE gel was then transferred to nitrocellulose membrane using the wet-transfer method at 250 mA for 1.5 hours. The membrane was then blocked with LI-COR blocking buffer (LI-COR, 927-50000) for 1 hour and was probed with primary antibody (mouse anti-STAT3 (124H6) (CST #91395) 1:2000 or mouse anti-beta-Actin (8H10D10) (CST #3700) 1:10000) at 4° C. overnight. The membrane was then washed three times with TBST buffer and probed with secondary antibody (anti-mouse IgG (LI-COR, 926-68070), 1:5000) for 1 hour at room temperature. The membrane was then scanned on a LI-COR Odyssey instrument and was quantified using Image Studio Version 5.2. Concentration at 50% degradation (DC50) was calculated by fitting dose dependent degradation data using a sigmoidal equation using GraphPad Prism Version 8.0.

[1] = read-out: A549 DC50, 24 hours, tested up to 30 μM or 10 μM
[2] = 24 hours, tested up to 30 μM or 10 μM, read-out: A549 DC50

Chain of STAT3 (P40763 whole entry): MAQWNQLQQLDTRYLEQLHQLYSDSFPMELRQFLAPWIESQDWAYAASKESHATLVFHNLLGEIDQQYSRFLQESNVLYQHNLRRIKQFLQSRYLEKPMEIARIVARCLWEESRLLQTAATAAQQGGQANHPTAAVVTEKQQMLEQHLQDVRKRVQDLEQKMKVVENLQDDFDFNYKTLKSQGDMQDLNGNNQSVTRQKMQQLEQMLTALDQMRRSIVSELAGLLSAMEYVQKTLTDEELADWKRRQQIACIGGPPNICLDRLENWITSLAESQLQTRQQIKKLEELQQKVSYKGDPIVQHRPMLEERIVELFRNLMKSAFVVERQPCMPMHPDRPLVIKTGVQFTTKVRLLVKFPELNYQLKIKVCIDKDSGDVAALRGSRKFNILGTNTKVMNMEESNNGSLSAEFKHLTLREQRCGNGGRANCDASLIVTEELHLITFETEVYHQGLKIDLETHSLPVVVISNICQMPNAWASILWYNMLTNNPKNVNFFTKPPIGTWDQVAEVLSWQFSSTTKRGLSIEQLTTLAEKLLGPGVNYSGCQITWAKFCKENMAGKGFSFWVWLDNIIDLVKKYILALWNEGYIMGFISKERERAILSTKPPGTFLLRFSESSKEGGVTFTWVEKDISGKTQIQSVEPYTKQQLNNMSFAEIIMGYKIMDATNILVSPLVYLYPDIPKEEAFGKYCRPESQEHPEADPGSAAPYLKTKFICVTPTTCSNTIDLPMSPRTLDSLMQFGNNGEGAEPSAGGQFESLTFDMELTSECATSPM

Row | Structure (SMILES) | DC50 [1] | DC50 [2]
1 | C/C(=C\C(=O)N[C@H]1CCc2cccc3c2N(C1=O)[C@H](C(=O)N[C@@H](CCC(N)=O)[C@@H](C)OCc1ccc(CCCOCCOCCOCCCc2ccc4c(c2)n(C)c(=O)n4C2CCC(=O)NC2=O)cc1)C3)c1ccc(C(F)(F)P(=O)(OCOC(=O)C(C)(C)C)OCOC(=O)C(C)(C)C)cc1 (stereo partly shown) [Compound I-55] | > 30 µM | –
2 | CCCC[C@H](NC(=O)/C=C(\C)c1ccc(C(F)(F)P(=O)(OCOC(=O)C(C)(C)C)OCOC(=O)C(C)(C)C)cc1)C(=O)N1C[C@H]2C[C@H]2[C@H]1C(=O)N[C@@H](CCC(N)=O)[C@@H](C)OCc1ccc(CCCNC(=O)COCCOCCCc2ccc3c(c2)n(C)c(=O)n3C2CCC(=O)NC2=O)cc1 (stereo partly drawn) [Compound I-58, [([4-[(1E)-1-[[(2S)-1-[(1R,2S,5S)-2-[[(3S,4R)-1-carbamoyl-4-[(4-[3-[2-(2-[3-[1-(2,6-dioxopiperidin-3-yl)-3-methyl-2-oxo-1,3-benzodiazol-5-yl]propoxy]ethoxy)acetamido]propyl]phenyl)methoxy]pentan-3-yl]carbamoyl]-3-azabicyclo[3.1.0]hexan-3-yl]-1-oxohexan-2-yl]carbamoyl]prop-1-en-2-yl]phenyl]difluoromethyl([(2,2-dimethylpropanoyl)oxy]methoxy)phosphoryl)oxy]methyl 2,2-dimethylpropanoate] | > 30 µM | –
3 | CCCC[C@H](NC(=O)/C=C(\C)c1ccc(C(F)(F)P(=O)(OCOC(=O)C(C)(C)C)OCOC(=O)C(C)(C)C)cc1)C(=O)N1C[C@H]2C[C@H]2[C@H]1C(=O)N[C@@H](CCC(N)=O)[C@@H](C)OCc1ccc(CCCNC(=O)COCCOCCOCCCc2ccc3c(c2)n(C)c(=O)n3C2CCC(=O)NC2=O)cc1 (stereo partly drawn) [Compound I-59, [([4-[(1E)-1-[[(2S)-1-[(1R,2S,5S)-2-[[(3S,4R)-1-carbamoyl-4-[[4-(3-[2-[2-(2-[3-[1-(2,6-dioxopiperidin-3-yl)-3-methyl-2-oxo-1,3-benzodiazol-5-yl]propoxy]ethoxy)ethoxy]acetamido]propyl)phenyl]methoxy]pentan-3-yl]carbamoyl]-3-azabicyclo[3.1.0]hexan-3-yl]-1-oxohexan-2-yl]carbamoyl]prop-1-en-2-yl]phenyl]difluoromethyl([(2,2-dimethylpropanoyl)oxy]methoxy)phosphoryl)oxy]methyl 2,2-dimethylpropanoate] | > 30 µM | –
4 | C/C(=C\C(=O)N[C@H]1CCc2cccc3c2N(C1=O)[C@H](C(=O)N[C@@H](CCC(N)=O)[C@@H](C)OCc1ccc(CCCOCCOCCOCCOCCCc2ccc4c(c2)n(C)c(=O)n4C2CCC(=O)NC2=O)cc1)C3)c1ccc(C(F)(F)P(=O)(OCOC(=O)C(C)(C)C)OCOC(=O)C(C)(C)C)cc1 (stereo partly shown) [Compound I-60] | > 30 µM | –
5 | C/C(=C\C(=O)N[C@H]1CCc2cccc3c2N(C1=O)[C@H](C(=O)N[C@@H](CCC(N)=O)[C@@H](C)OCc1ccc(CCCNC(=O)COCCCc2ccc4c(c2)n(C)c(=O)n4C2CCC(=O)NC2=O)cc1)C3)c1ccc(C(F)(F)P(=O)(OCOC(=O)C(C)(C)C)OCOC(=O)C(C)(C)C)cc1 (stereo partly shown) [Compound I-68] | > 30 µM | –
6 | C/C(=C\C(=O)N[C@H]1CCc2cccc3c2N(C1=O)[C@H](C(=O)N[C@@H](CCC(N)=O)[C@@H](C)OCc1ccc(CCCCCC(=O)N[C@H](C(=O)N2C[C@H](O)C[C@H]2C(=O)NCc2ccc(-c4scnc4C)cc2)C(C)(C)C)cc1)C3)c1ccc(C(F)(F)P(=O)(OCOC(=O)C(C)(C)C)OCOC(=O)C(C)(C)C)cc1 [Compound I-71] | < 30 µM | –
7 | C/C(=C\C(=O)N[C@H]1CCc2cccc3c2N(C1=O)[C@H](C(=O)N[C@@H](CCC(N)=O)[C@@H](C)OCc1ccc(CCCCC(=O)N[C@H](C(=O)N2C[C@H](O)C[C@H]2C(=O)NCc2ccc(-c4scnc4C)cc2)C(C)(C)C)cc1)C3)c1ccc(CP(=O)(O)O)cc1 [Compound I-80, diammonium [4-[(1E)-1-[[(2S,11S)-2-[[(3S,4R)-1-carbamoyl-4-[[4-(4-[[(2S)-1-[(2S,4R)-4-hydroxy-2-([[4-(4-methyl-1,3-thiazol-5-yl)phenyl]methyl]carbamoyl)pyrrolidin-1-yl]-3,3-dimethyl-1-oxobutan-2-yl]carbamoyl]butyl)phenyl]methoxy]pentan-3-yl]carbamoyl]-12-oxo-1-azatricyclo[6.4.1.0^[4,13]]trideca-4(13),5,7-trien-11-yl]carbamoyl]prop-1-en-2-yl]phenyl]methylphosphonate] | – | > 30 µM
8 | Cc1ncsc1-c1ccc(CNC(=O)[C@@H]2C[C@@H](O)CN2C(=O)[C@@H](NC(=O)CCCCc2ccc(CO[C@H](C)[C@H](CCC(N)=O)NC(=O)[C@@H]3Cc4cccc5c4N3C(=O)[C@@H](NC(=O)c3cc4cc(CP(=O)(O)O)ccc4[nH]3)CC5)cc2)C(C)(C)C)cc1 [Compound I-82, diammonium (2-[[(2S,11S)-2-[[(3S,4R)-1-carbamoyl-4-[[4-(4-[[(2S)-1-[(2S,4R)-4-hydroxy-2-([[4-(4-methyl-1,3-thiazol-5-yl)phenyl]methyl]carbamoyl)pyrrolidin-1-yl]-3,3-dimethyl-1-oxobutan-2-yl]carbamoyl]butyl)phenyl]methxy]opentan-3-yl]carbamoyl]-12-oxo-1-azatricyclo[6.4.1.0^[4,13]]trideca-4(13),5,7-trien-11-yl]carbamoyl]-1H-indo1-5-yl)methylphosphonate] | – | > 30 µM
9 | C[C@@H](OCc1ccc(CCCCc2ccc3c(c2)n(C)c(=O)n3C2CCC(=O)NC2=O)cc1)[C@H](CCC(N)=O)NC(=O)[C@@H]1Cc2cccc3c2N1C(=O)[C@@H](NC(=O)c1cc2cc(C(=O)P(=O)(O)O)ccc2[nH]1)CC3 (stereo partly shown) [Compound I-84] | > 30 µM | –
10 | Cc1ncsc1-c1ccc(CNC(=O)[C@@H]2C[C@@H](O)CN2C(=O)[C@@H](NC(=O)CCCC#Cc2ccc(CO[C@H](C)[C@H](CCC(N)=O)NC(=O)[C@@H]3Cc4cccc5c4N3C(=O)[C@@H](NC(=O)c3cc4cc(C(=O)P(=O)(O)O)ccc4[nH]3)CC5)cc2)C(C)(C)C)cc1 [Compound I-86] | < 30 µM | –
11 | Cc1ncsc1-c1ccc(CNC(=O)[C@@H]2C[C@@H](O)CN2C(=O)[C@@H](NC(=O)CCc2ccc3cc(CO[C@H](C)[C@H](CCC(N)=O)NC(=O)[C@@H]4Cc5cccc6c5N4C(=O)[C@@H](NC(=O)c4cc5cc(C(=O)P(=O)(O)O)ccc5[nH]4)CC6)ccc3c2)C(C)(C)C)cc1 [Compound I-87, diammonium 2-[[(2S,11S)-2-[[(3S,4R)-1-carbamoyl-4-[[6-(2-[[(2S)-1-[(2S,4R)-4-hydroxy-2-([[4-(4-methyl-1,3-thiazol-5-yl)phenyl]methyl]carbamoyl)pyrrolidin-1-yl]-3,3-dimethyl-1-oxobutan-2-yl]carbamoyl]ethyl)naphthalen-2-yl]methoxy]pentan-3-yl]carbamoyl]-12-oxo-1-azatricyclo[6.4.1.0^[4,13]]trideca-4(13),5,7-trien-11-yl]carbamoyl]-1H-indole-5-carbonylphosphonate] | < 30 µM | –
12 | Cn1c(=O)n(C2CCC(=O)NC2=O)c2cccc(CCCCC(=O)N3CC[C@H]4CC[C@@H](C(=O)N[C@@H](CCC(N)=O)C(=O)NC(c5ccccc5)c5ccccc5)N4C(=O)[C@@H](NC(=O)c4cc5cc(C(=O)P(=O)(O)O)ccc5[nH]4)C3)c21 (stereo partly drawn) [Compound I-88, 2-[[(5S,8S,10aR)-8-[[(1S)-3-carbamoyl-1-(diphenylmethylcarbamoyl)propyl]carbamoyl]-3-[5-[1-(2,6-dioxopiperidin-3-yl)-3-methyl-2-oxo-1,3-benzodiazol-4-yl]pentanoyl]-6-oxo-octahydropyrrolo[1,2-a][1,5]diazocin-5-yl]carbamoyl]-1H-indole-5-carbonylphosphonic acid] | > 30 µM | –
13 | C/C(=C\C(=O)N[C@H]1CN(C(=O)CCCCCC#Cc2cccc3c2CN(C2CCC(=O)NC2=O)C3=O)CC[C@H]2CC[C@@H](C(=O)N[C@@H](CCC(N)=O)C(=O)NC(c3ccccc3)c3ccccc3)N2C1=O)c1ccc(CP(=O)(O)O)cc1 (stereo partly drawn) [Compound I-89, diammonium [4-[(1E)-1-[[(5S,8S,10aR)-8[[(1S)-3-carbamoyl-1-(diphenylmethylcarbamoyl)propyl]carbamoyl]-3-[8-[2-(2,6-dioxopiperidin-3-yl)-1-oxo-3H-isoindol-4-yl]oct-7-ynoyl]-6-oxo-octahydropyrrolo[1,2-a][1,5]diazocin-5-yl]carbamoyl]prop-1-en-2-yl]phenyl]methylphosphonate] | < 30 µM | –
